Data published in patent US20090246302A1, “COMPOSITION AND METHOD FOR PROTECTING AGRICULTURAL CROPS AND/OR AGRICULTURAL PRODUCTS” (priority 2008, published 2009).
Where two headings read alike, the source gives them in different places.

How the values were obtained:
Format in all cases: in vivo
C. cephalonica larvae [1] = experiment: whole plant or invertebrate; details: Corcyra cephalonica, read-out: Mean (%) mortality of insects, laboratory trials; for mortality at 750 mg/kg: dosage of 750 mg/kg; for mortality at 1000 mg/kg: dosage of 1 g/kg
Description: (§1) The composition for protecting agricultural products was prepared. A new method was employed using rice bran, as carrier material. 500 g of clean and uncontaminated rice bran collected from the rice mills was completely dehydrated by sun drying. 25 g of the botanical extract of the P. betel in 125 ml of acetone was sprayed uniformly on to the rice bran. Mixed manually and allowed to shade dry for about 20 min.

C. chinensis adult [2] = experiment: whole plant or invertebrate; details: Callosobruchus chinensis, read-out: Mean (%) mortality of insects, laboratory trials; for mortality at 750 mg/kg: dosage of 750 mg/kg; for mortality at 1000 mg/kg: dosage of 1 g/kg
Description: as §1

S. oryzae [3] = experiment: whole plant or invertebrate; details: Sitophilus oryzae, laboratory trials, read-out: Mean (%) mortality of insects; for mortality at 750 mg/kg: dosage of 750 mg/kg; for mortality at 1000 mg/kg: dosage of 1 g/kg
Description: as §1

T. granarium adult [4] = experiment: whole plant or invertebrate; details: Trogoderma granarium, read-out: Mean (%) mortality of insects, laboratory trials; for mortality at 750 mg/kg: dosage of 750 mg/kg; for mortality at 1000 mg/kg: dosage of 1 g/kg
Description: as §1

C. cephalonica larvae [5] = details: field evaluation, dosage of 25 mg/25 Kg
C. chinensis adult [6] = details: field evaluation, dosage of 25 mg/25 Kg
T. granarium adult [7] = details: field evaluation, dosage of 25 mg/25 Kg
S. oryzae [8] = details: field evaluation, dosage of 25 mg/25 Kg

With `C=CCc1ccc(O)c(OC)c1` [Eugenol, 4-Allyl-2-methoxyphenol] the mortality at 750 mg/kg (C. cephalonica larvae [1]; 1st week) was 100%, the mortality at 750 mg/kg (C. cephalonica larvae [1]; 2nd week) was 100% and the mortality at 750 mg/kg (C. cephalonica larvae [1]; 3rd week) was 53.3%. The mortality at 750 mg/kg (C. cephalonica larvae [1]; 4th week) was 13.3%, the mortality at 750 mg/kg (C. cephalonica larvae [1]; 5th week) was 0% and the mortality at 750 mg/kg (C. cephalonica larvae [1]; 6th week) was 0%. The mortality at 1000 mg/kg (C. cephalonica larvae [1]; 1st week) was 100%, the mortality at 1000 mg/kg (C. cephalonica larvae [1]; 2nd week) was 100% and the mortality at 1000 mg/kg (C. cephalonica larvae [1]; 3rd week) was 74%. It also gave a mortality at 1000 mg/kg (C. cephalonica larvae [1]; 4th week) of 29%, a mortality at 1000 mg/kg (C. cephalonica larvae [1]; 5th week) of 13.3% and a mortality at 1000 mg/kg (C. cephalonica larvae [1]; 6th week) of 0%. For the same molecule, the mortality at 750 mg/kg (C. chinensis adult [2]; 1st week) was 100%, the mortality at 750 mg/kg (C. chinensis adult [2]; 2nd week) was 100% and the mortality at 750 mg/kg (C. chinensis adult [2]; 3rd week) was 58.4%. For the same molecule, the mortality at 750 mg/kg (C. chinensis adult [2]; 4th week) was 20%, the mortality at 750 mg/kg (C. chinensis adult [2]; 5th week) was 0% and the mortality at 750 mg/kg (C. chinensis adult [2]; 6th week) was 0%. For the same molecule, the mortality at 1000 mg/kg (C. chinensis adult [2]; 1st week) was 100%, the mortality at 1000 mg/kg (C. chinensis adult [2]; 2nd week) was 100% and the mortality at 1000 mg/kg (C. chinensis adult [2]; 3rd week) was 63%. For the same molecule, the mortality at 1000 mg/kg (C. chinensis adult [2]; 4th week) was 35%, the mortality at 1000 mg/kg (C. chinensis adult [2]; 5th week) was 20% and the mortality at 1000 mg/kg (C. chinensis adult [2]; 6th week) was 0%. The mortality at 750 mg/kg (S. oryzae [3]; 1st week) was 100%, the mortality at 750 mg/kg (S. oryzae [3]; 2nd week) was 100% and the mortality at 750 mg/kg (S. oryzae [3]; 3rd week) was 40%. The mortality at 750 mg/kg (S. oryzae [3]; 4th week) was 20%, the mortality at 750 mg/kg (S. oryzae [3]; 5th week) was 0% and the mortality at 750 mg/kg (S. oryzae [3]; 6th week) was 0%. It also gave a mortality at 1000 mg/kg (S. oryzae [3]; 1st week) of 100%, a mortality at 1000 mg/kg (S. oryzae [3]; 2nd week) of 100% and a mortality at 1000 mg/kg (S. oryzae [3]; 3rd week) of 40%. For the same molecule, the mortality at 1000 mg/kg (S. oryzae [3]; 4th week) was 35%, the mortality at 1000 mg/kg (S. oryzae [3]; 5th week) was 25% and the mortality at 1000 mg/kg (S. oryzae [3]; 6th week) was 0%. It also gave a mortality at 750 mg/kg (T. granarium adult [4]; 1st week) of 100%, a mortality at 750 mg/kg (T. granarium adult [4]; 2nd week) of 100% and a mortality at 750 mg/kg (T. granarium adult [4]; 3rd week) of 26%. It also gave a mortality at 750 mg/kg (T. granarium adult [4]; 4th week) of 13.3%, a mortality at 750 mg/kg (T. granarium adult [4]; 5th week) of 0% and a mortality at 750 mg/kg (T. granarium adult [4]; 6th week) of 0%. It also gave a mortality at 1000 mg/kg (T. granarium adult [4]; 1st week) of 100%, a mortality at 1000 mg/kg (T. granarium adult [4]; 2nd week) of 100% and a mortality at 1000 mg/kg (T. granarium adult [4]; 3rd week) of 40%. For the same molecule, the mortality at 1000 mg/kg (T. granarium adult [4]; 4th week) was 23%, the mortality at 1000 mg/kg (T. granarium adult [4]; 5th week) was 0% and the mortality at 1000 mg/kg (T. granarium adult [4]; 6th week) was 0%. For the same molecule, the “Mean (%) mortality of insects” value (C. cephalonica larvae [5]; 1st week) was 100%, the “Mean (%) mortality of insects” value (C. cephalonica larvae [5]; 2nd week) was 100% and the “Mean (%) mortality of insects” value (C. cephalonica larvae [5]; 3rd week) was 89%. For the same molecule, the “Mean (%) mortality of insects” value (C. cephalonica larvae [5]; 4th week) was 66%, the “Mean (%) mortality of insects” value (C. cephalonica larvae [5]; 5th week) was 23% and the “Mean (%) mortality of insects” value (C. cephalonica larvae [5]; 6th week) was 0%. The “Mean (%) mortality of insects” value (C. cephalonica larvae [5]; 7th week) was 0%, the “Mean (%) mortality of insects” value (C. chinensis adult [6]; 1st week) was 100% and the “Mean (%) mortality of insects” value (C. chinensis adult [6]; 2nd week) was 100%. For the same molecule, the “Mean (%) mortality of insects” value (C. chinensis adult [6]; 3rd week) was 100%, the “Mean (%) mortality of insects” value (C. chinensis adult [6]; 4th week) was 53% and the “Mean (%) mortality of insects” value (C. chinensis adult [6]; 5th week) was 39%. For the same molecule, the “Mean (%) mortality of insects” value (C. chinensis adult [6]; 6th week) was 12.4%, the “Mean (%) mortality of insects” value (C. chinensis adult [6]; 7th week) was 0% and the “Mean (%) mortality of insects” value (T. granarium adult [7]; 1st week) was 100%. For the same molecule, the “Mean (%) mortality of insects” value (T. granarium adult [7]; 2nd week) was 100%, the “Mean (%) mortality of insects” value (T. granarium adult [7]; 3rd week) was 72% and the “Mean (%) mortality of insects” value (T. granarium adult [7]; 4th week) was 42%. The “Mean (%) mortality of insects” value (T. granarium adult [7]; 5th week) was 20%, the “Mean (%) mortality of insects” value (T. granarium adult [7]; 6th week) was 0% and the “Mean (%) mortality of insects” value (T. granarium adult [7]; 7th week) was 0%. For the same molecule, the “Mean (%) mortality of insects” value (S. oryzae [8]; 1st week) was 100%, the “Mean (%) mortality of insects” value (S. oryzae [8]; 2nd week) was 100% and the “Mean (%) mortality of insects” value (S. oryzae [8]; 3rd week) was 85%. The “Mean (%) mortality of insects” value (S. oryzae [8]; 4th week) was 50%, the “Mean (%) mortality of insects” value (S. oryzae [8]; 6th week) was 0% and the “Mean (%) mortality of insects” value (S. oryzae [8]; 7th week) was 0%.
